Patent US8846719B2, “Isoxazolo-pyridine derivatives” (Roche Palo Alto LLC, priority 2007, dated 2014)

Biological target: human GABA A receptor α5β3γ2 (Homo sapiens (Human), UniProt P18507+P31644)
Assay: [3H]flumazenil competition binding assay, human GABA A α5β3γ2 receptors expressed in HEK293 cells
Conditions: human receptor; displacement of [3H]flumazenil (0.5 nM); means of two determinations; read-out: hKi GABAAa5
In short: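 Ki values, each the mean of two runs, derive from displacement of [3H]flumazenil from human α5β3γ2 GABA A receptors transiently expressed in HEK293 membranes. Binding ran 1 h at 4° C in Krebs-tris, pH 7.5, before filter harvest and scintillation counting.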

Structure (SMILES)	Ki
Cc1onc(-c2ccc(F)cc2)c1CNc1ccc(C(=O)NCC(F)(F)F)cn1 [Example 173, 6-{[3-(4-Fluoro-phenyl)-5-methyl-isoxazol-4-ylmethyl]-amino}-N-(2,2,2-trifluoro-ethyl)-nicotinamide]	5.9 nM
Cc1onc(-c2cc(F)ccc2F)c1COc1ccc(C(=O)NC(C)C)cn1 [Example 265, 6-[3-(2,5-Difluoro-phenyl)-5-methyl-isoxazol-4-ylmethoxy]-N-isopropyl-nicotinamide]	27.3 nM
O=C(NC1CCS(=O)(=O)C1)c1ccc(OCc2conc2-c2ccc(F)cc2)nc1 (stereo not shown) [Example 340, N-(1,1-Dioxo-tetrahydro-1,6-thiophen-3-yl)-6-[3-(4-fluoro-phenyl)-isoxazol-4-ylmethoxy]-nicotinamide]	19.4 nM
CCNC(=O)c1ccc(OCc2c(-c3ccc(F)cn3)noc2C)nc1 [Example 297, Ethyl-6-[3-(5-fluoro-pyridin-2-yl)-5-methyl-isoxazol-4-ylmethoxy]-nicotinamide]	0.5 nM
Cc1onc(-c2ccccc2)c1COc1cc(C(F)(F)F)c(C(=O)NC2CCOCC2)cn1 [Example 63, 6-(5-Methyl-3-phenyl-isoxazol-4-ylmethoxy)-N-(tetrahydro-pyran-4-yl)-4-trifluoromethyl-nicotinamide]	10.7 nM
Cc1onc(-c2ccc(F)cc2)c1CNc1ccc(C(=O)NC(C)C)cn1 [Example 175, 6-{[3-(4-Fluoro-phenyl)-5-methyl-isoxazol-4-ylmethyl]-amino}-N-isopropyl-nicotinamide]	3.7 nM
Cc1onc(-c2ccc(Cl)cc2)c1COc1ccc(C(=O)N2CCSCC2)cn1 [Example 124, {6-[3-(4-Chloro-phenyl)-5-methyl-isoxazol-4-ylmethoxy]-pyridin-3-yl}-thiomorpholin-4-yl-methanone]	7.5 nM
Cc1onc(-c2cccc(F)c2F)c1COc1ccc(C(=O)NC2CCOCC2)cn1 [Example 262, 6-[3-(2,3-Difluoro-phenyl)-5-methyl-isoxazol-4-ylmethoxy]-N-(tetrahydro-pyran-4-yl)-nicotinamide]	5.2 nM
O=C(NCC1(O)CC1)c1ccc(OCc2conc2-c2ccc(F)cc2)nc1 [Example 339, 6-[3-(4-Fluoro-phenyl)-isoxazol-4-ylmethoxy]-N-(1-hydroxy-cyclopropylmethyl)-nicotinamide]	23.1 nM
Cc1onc(-c2ccccc2)c1COc1ccc(C(=O)NC2CCCN(CC(=O)NCC(F)(F)F)C2)cn1 (stereo not shown) [Example 44, 6-(5-Methyl-3-phenyl-isoxazol-4-ylmethoxy)-N-{1-[(2,2,2-trifluoro-ethylcarbamoyl)-methyl]-piperidin-3-yl}-nicotinamide]	10.1 nM
Cc1onc(-c2ccc(Cl)cn2)c1COc1ccc(C(=O)NCC2CC2)cn1 [Example 306, 6-[3-(5-Chloro-pyridin-2-yl)-5-methyl-isoxazol-4-ylmethoxy]-cyclopropylmethyl-nicotinamide]	0.3 nM
Cc1onc(-c2ccc(F)cc2F)c1COc1ccc(C(=O)NC2CCOCC2)cn1 [Example 264, 6-[3-(2,4-Difluoro-phenyl)-5-methyl-isoxazol-4-ylmethoxy]-N-(tetrahydro-pyran-4-yl)-nicotinamide]	2.3 nM
Cc1onc(-c2cccc(F)c2)c1CNc1ccc(C(=O)NC2CCOCC2)cn1 [Example 171, 6-{[3-(3-Fluoro-phenyl)-5-methyl-isoxazol-4-ylmethyl]-amino}-N-(tetrahydro-pyran-4-yl)-nicotinamide]	14.9 nM
Cc1onc(-c2ccccc2)c1CNc1ccccn1 [Example 160, (5-Methyl-3-phenyl-isoxazol-4-ylmethyl)-pyridin-2-yl-amine]	87.3 nM
Cc1cc(C(=O)NC2CCOCC2)cnc1OCc1c(-c2ccccc2)noc1C [Example 66, 5-Methyl-6-(5-methyl-3-phenyl-isoxazol-4-ylmethoxy)-N-(tetrahydro-pyran-4-yl)-nicotinamide]	1.4 nM
Cc1onc(-c2ccncn2)c1COc1ccc(C(=O)N2CCSCC2)cn1 [Example 319, [6-(5-Methyl-3-pyrimidin-4-yl-isoxazol-4-ylmethoxy)-pyridin-3-yl]-thiomorpholin-4-yl-methanone]	20.2 nM
Cc1onc(-c2ccccc2)c1COc1ccc(C(=O)NC2CCCN(CC(=O)O)C2)cn1 (stereo not shown) [Example 41, (3-{[6-(5-Methyl-3-phenyl-isoxazol-4-ylmethoxy)-pyridine-3-carbonyl]-amino}-piperidin-1-yl)-acetic acid]	9.3 nM
CC(=O)NCCNC(=O)c1ccc(OCc2conc2-c2ccc(F)cc2)nc1 [Example 335, N-(2-Acetylamino-ethyl)-6-[3-(4-fluoro-phenyl)-isoxazol-4-ylmethoxy]-nicotinamide]	37.6 nM
Cc1onc(-c2ccccc2)c1COc1ccc(C(=O)NCCCCCO)cn1 [Example 221, N-(5-Hydroxy-pentyl)-6-(5-methyl-3-phenyl-isoxazol-4-ylmethoxy)-nicotinamide]	4.1 nM
Cc1onc(-c2ccncc2)c1COc1ccc(C(=O)N2CCOCC2)cn1 [Example 151, [6-(5-Methyl-3-pyridin-4-yl-isoxazol-4-ylmethoxy)-pyridin-3-yl]-morpholin-4-yl-methanone]	84.5 nM
Cc1onc(-c2ccc(F)cc2)c1CNc1ccc(C(=O)NC2CC2)cn1 [Example 176, N-Cyclopropyl-6-{[3-(4-fluoro-phenyl)-5-methyl-isoxazol-4-ylmethyl]-amino}-nicotinamide]	7.4 nM
Cc1onc(-c2ccc(F)cc2)c1CNc1ccc(C(=O)N2CCS(=O)(=O)CC2)cn1 [Example 178, (1,1-Dioxo-1,6-thiomorpholin-4-yl)-(6-{[3-(4-fluoro-phenyl)-5-methyl-isoxazol-4-ylmethyl]-amino}-pyridin-3-yl)-methanone]	29.2 nM

Continued, values first:

Ki	Structure (SMILES)
2.1 nM	Cc1onc(-c2ccc(Cl)cc2)c1COc1ccc(C(=O)NCC(F)(F)F)cn1 [Example 117, 6-[3-(4-Chloro-phenyl)-5-methyl-isoxazol-4-ylmethoxy]-N-(2,2,2-trifluoro-ethyl)-nicotinamide]
16.2 nM	COC(=O)c1ccc(OCc2c(-c3ccc(F)cc3)noc2C)nc1 [Example 103, 6-[3-(4-Fluoro-phenyl)-5-methyl-isoxazol-4-ylmethoxy]-nicotinic acid methyl ester]
4.5 nM	COC(=O)c1ccc(OCc2c(-c3ccc(Cl)cc3)noc2C)nc1 [Example 115, 6-[3-(4-Chloro-phenyl)-5-methyl-isoxazol-4-ylmethoxy]-nicotinic acid methyl ester]
28.1 nM	Cc1onc(-c2ccccc2)c1COc1ccc(C2(O)COC2)cn1 [Example 74, 3-[6-(5-Methyl-3-phenyl-isoxazol-4-ylmethoxy)-pyridin-3-yl]-oxetan-3-ol]
0.6 nM	Cc1onc(-c2ccccn2)c1COc1ccc(C(=O)NC(C)C)cn1 [Example 273, N-Isopropyl-6-(5-methyl-3-pyridin-2-yl-isoxazol-4-ylmethoxy)-nicotinamide]
2 nM	COC(=O)c1ccc(OCc2c(-c3ccc(F)cn3)noc2C)nc1 [Example 286, 6-[3-(5-Fluoro-pyridin-2-yl)-5-methyl-isoxazol-4-ylmethoxy]-nicotinic acid methyl ester]
2.4 nM	Cc1onc(-c2ccc(F)c(F)c2)c1COc1ccc(C(=O)NC2CCOCC2)cn1 [Example 127, 6-[3-(3,4-Difluoro-phenyl)-5-methyl-isoxazol-4-ylmethoxy]-N-(tetrahydro-pyran-4-yl)-nicotinamide]
33.3 nM	CCNC(=O)c1ccc(OCc2c(-c3ccc(F)cc3)noc2C(F)(F)F)nc1 [Example 138, N-Ethyl-6-[3-(4-fluoro-phenyl)-5-trifluoromethyl-isoxazol-4-ylmethoxy]-nicotinamide]
37.1 nM	Cc1onc(-c2ccccc2)c1COc1ccc(C(=O)N2CCCC2)cn1 [Example 228, [6-(5-Methyl-3-phenyl-isoxazol-4-ylmethoxy)-pyridin-3-yl]-pyrrolidin-1-yl-methanone]
19.8 nM	CNC(=O)c1ccc(OCc2c(-c3ccc(F)cc3)noc2C(F)(F)F)nc1 [Example 137, 6-[3-(4-Fluoro-phenyl)-5-trifluoromethyl-isoxazol-4-ylmethoxy]-N-methyl-nicotinamide]
4.1 nM	Cc1onc(-c2ccncc2)c1COc1ccc(C(=O)NCC2CC2)cn1 [Example 147, N-Cyclopropylmethyl-6-(5-methyl-3-pyridin-4-yl-isoxazol-4-ylmethoxy)-nicotinamide]
10.4 nM	Cc1onc(-c2ccc(F)cc2)c1COc1ccc(C(=O)N2CCSCC2)cn1 [Example 111, {6-[3-(4-Fluoro-phenyl)-5-methyl-isoxazol-4-ylmethoxy]-pyridin-3-yl}-thiomorpholin-4-yl-methanone]
53.2 nM	COC(=O)c1ccc(OCc2c(-c3cccnc3)noc2C)nc1 [Example 154, 6-(5-Methyl-3-pyridin-3-yl-isoxazol-4-ylmethoxy)-nicotinic acid methyl ester]
2.6 nM	Cc1onc(-c2ccccc2)c1COc1ccc(C(=O)NC2CC(OCc3ccccc3)C2)cn1 (stereo not shown) [Example 226, N-(3-Benzyloxy-cyclobutyl)-6-(5-methyl-3-phenyl-isoxazol-4-ylmethoxy)-nicotinamide]
2.9 nM	Cc1onc(-c2ccccc2)c1COc1ccc(C(=O)NC2(C#N)CC2)cn1 [Example 243, N-(1-Cyano-cyclopropyl)-6-(5-methyl-3-phenyl-isoxazol-4-ylmethoxy)-nicotinamide]
1.1 nM	Cc1onc(-c2ccc(Cl)cc2)c1COc1ccc(C(=O)NC2CC2)cn1 [Example 120, 6-[3-(4-Chloro-phenyl)-5-methyl-isoxazol-4-ylmethoxy]-N-cyclopropyl-nicotinamide]
8.2 nM	Cc1onc(-c2ccccc2)c1COc1ccc(C(=O)NCCCCCCO)cn1 [Example 222, N-(6-Hydroxy-hexyl)-6-(5-methyl-3-phenyl-isoxazol-4-ylmethoxy)-nicotinamide]
19.2 nM	Cc1onc(-c2ccccc2)c1COc1ccc(NC(=O)C(C)C)cn1 [Example 181, N-[6-(5-Methyl-3-phenyl-isoxazol-4-ylmethoxy)-pyridin-3-yl]-isobutyramide]
